What was measured:
M. abscessus [1] = assay: in vitro infection of THP1 monocytic human cell line with M. abscessus; assay type: cell-based; settings: for M. abscessus survival rate: THP1 cells, 48H, untreated control 2.7, p=0.005, FIG. 4A
M. tuberculosis = assay: in vitro infection of THP1 monocytic human cell line with M. tuberculosis; assay type: cell-based; settings: THP1 cells, untreated control 0.50, p=0.0165, FIG. 4B
M. marinum = M. marinum infection of zebrafish; assay type: in vivo; settings: zebrafish infected by M. marinum; FIG. 4C
M. abscessus [2] = settings: zebrafish, in vivo
M. abscessus [3] = assay: M. abscessus in liquid culture (absence of THP1 cells); assay type: cell-based; settings: liquid culture medium, no THP1 cells; Treprostinil 50 μM; versus untreated; FIG. 6
[4] = system: zebrafish homolog of the EP2 receptor (EP2a); assay: CRISPR EP2a KO zebrafish infected with M. abscessus; assay type: in vivo; settings: M. abscessus infected control and F0 CRISPR EP2a KO zebrafish; FIG. 7
Description: To explore the mechanism of action of Treprostinil in this context, the zebrafish homolog of the EP2 receptor was knocked out using CRISPR and control and KO zebrafish were infected with M. abscessus. […] This definitively confirms that Treprostinil acts via an EP2-mediated host-directed therapeutic effect.

## CCCCC[C@H](O)CC[C@@H]1[C@H]2Cc3cccc(OCC(=O)O)c3C[C@H]2C[C@H]1O [Treprostinil]
M. abscessus [1]; FIG. 5B, THP1 killing of M. abscessus according to legend b39
  dose response of killing of M. abscessus: dose response to the effect was also observed
M. abscessus [1]; 400 nM
  M. abscessus survival rate: 1.07
M. abscessus [1]; 1 μM
  M. abscessus survival rate: 1.24
M. tuberculosis; 400 nM
  M. tuberculosis survival rate: 0.44
M. tuberculosis; 1 μM
  M. tuberculosis survival rate: 0.37
M. marinum
  effect on M. marinum numbers in zebrafish: no observable effect
M. abscessus [2]
  killing of M. abscessus compared with imipenem: significantly more effective than imipenem
M. abscessus [3]
  direct antibiotic effect on M. abscessus growth: no difference in growth
[4]
  Treprostinil rescue in EP2a KO zebrafish: completely abrogated

Reference: patent publication US20260021109A1, “PROSTANOID RECEPTOR AGONISTS AS NON-TUBERCULOUS ANTI-MYCOBACTERIAL AGENTS” (priority 2022, published 2026)
